One may read the EC50 as the concentration giving half of the maximal effect. A high value points to weaker potency.

Among the data in US10709711B2 (G1 Therapeutics, Inc., priority 2013, dated 2020) are EC50 values, retold here.

For assay [1], the system named is SupT1 cells (human T-cell lymphoblastic leukemia). The assay is described as follows: Inhibition of cellular proliferation, SupT1 cells (CellTiter-Glo). Format: cell-based. The conditions noted are these: SUP-T1, 96 h, cell viability after four days, nine point dilution series 10 uM to 1 nM. As for the experimental part: (§1) The SupT1 cells were seeded in Costar (Tewksbury, Mass.) 3093 96 well tissue culture treated white walled/clear bottom plates. A nine point dose response dilution series from 10 uM to 1 nM was performed and cell viability was determined after four days as indicated using the CellTiter-Glo® assay (CTG; Promega, Madison, Wis., United States of America) following the manufacturer's recommendations. Plates were read on a BioTek (Winooski, Vt.) Syngergy2 multi-mode plate reader. The Relative Light Units (RLU) were plotted as a result of variable molar concentration and data was analyzed using Graphpad (LaJolla, Calif.) Prism 5 statistical software to determine the IC50 for each compound.
(§2) The compounds listed in Table 1 were tested for the inhibition of cellular proliferation using SupT1 (human T-cell lymphoblastic leukemia) and Daudi (human B-lymphoblastoid cell from Burkitt's Lymphoma patient).
A general note: ATP-based viability assays read luminescence as a measure of living cells.

Assay [2] deals with Daudi (human B-lymphoblastoid cell from Burkitt's Lymphoma patient). The assay is described as follows: Inhibition of cellular proliferation, Daudi cells (CellTiter-Glo). In kind it is cell-based. The conditions noted are these: EC50 measured as illustrated in Example 150 (CellTiter-Glo). As to the method:
as §1, §2

For `CN1CCN(c2ccc(Nc3ncc4cc5n(c4n3)C3(CCCCC3)CNC5=O)nc2)CC1(C)C` [D], the EC50 in assay [1] was found to be 55 nM; in assay [2] it was 297 nM.

Regarding `CC(C)C[C@@H]1CNC(=O)c2cc3cnc(Nc4ccc(N5CCNCC5)cn4)nc3n21` [WWW], the results for the EC50 in assay [1] and in assay [2] were 264 nM and 1270 nM, respectively.

Regarding `CCOCCN1CCN(c2ccc(Nc3ncc4cc5n(c4n3)C3(CCCC3)CNC5=O)nc2)CC1` [MMM], the EC50 in assay [1] stood at 37 nM; in assay [2], 294 nM.

Turning to `C[C@H]1CN(c2ccc(Nc3ncc4cc5n(c4n3)C3(CCCCC3)CNC5=O)nc2)CCN1CC1CC1` [B], the EC50 in assay [1] came out at 96 nM; in assay [2] it was 385 nM.

Regarding `CC1CN(c2ccc(Nc3ncc4cc5n(c4n3)C3(CCCCC3)CNC5=O)nc2)CCN1CC(C)(C)O` (centres unmarked) [W], the EC50 is 57 nM in assay [1] and 731 nM in assay [2].

For the molecule `CC(C)(C)CCN1CCN(c2ccc(Nc3ncc4cc5n(c4n3)C3(CCCC3)CNC5=O)nc2)CC1(C)C` [CCC], the EC50 was 133 nM in assay [1] and 1860 nM in assay [2].

As for `C[C@H]1CN(c2ccc(Nc3ncc4cc5n(c4n3)C3(CCCCC3)CNC5=O)nc2)CCN1` [KK], the values for the EC50 in assay [1] and in assay [2] were 112 nM and 147 nM, respectively.

As to `CC(C)N1CCN(C(=O)c2ccc(Nc3ncc4cc5n(c4n3)C3(CCCCC3)CNC5=O)nc2)CC1` [II], the values for the EC50 in assay [1] and in assay [2] were 42 nM and 347 nM, respectively.

As to `CN(C)C1CCN(c2ccc(Nc3ncc4cc5n(c4n3)C3(CCCC3)CNC5=O)nc2)CC1` [YY], the EC50 in assay [1] amounted to 97 nM; in assay [2], 356 nM.

Take `CC(C)N1CCN(c2ccc(Nc3ncc4cc5n(c4n3)C3(CCCCC3)CNC5=O)nc2)C[C@@H]1C` [AA]: the figures for the EC50 in assay [1] and in assay [2] were 58 nM and 233 nM, respectively.

Consider `CC(C)N1CCN(c2ccc(Nc3ncc4cc5n(c4n3)C3(CCCCC3)CNC5=O)nn2)CC1` [TT], for which the EC50 turned out to be 92 nM in assay [1] and 589 nM in assay [2].

Take `CN1CCN(c2ccc(Nc3ncc4cc5n(c4n3)C3(CCCC3)CNC5=O)nc2)CC1` [ZZ]: the figures for the EC50 in assay [1] and in assay [2] were 272 nM and 584 nM, respectively.

`CCN(CC)C1CCN(C(=O)c2ccc(Nc3ncc4cc5n(c4n3)C3(CCCCC3)CNC5=O)nc2)C1` (centres unmarked) [JJ]: the EC50 in assay [1] was 49 nM; in assay [2], 389 nM.

In the case of `CCN(CC)C1CCN(c2ccc(Nc3ncc4cc5n(c4n3)C3(CCCC3)CNC5=O)nc2)CC1` [LLL], the EC50 amounted to 241 nM in assay [1] and 1550 nM in assay [2].

Turning to `C[C@H](O)CN1CCN(c2ccc(Nc3ncc4cc5n(c4n3)C3(CCCCC3)CNC5=O)nc2)C[C@@H]1C` [C], the EC50 in assay [1] turned out to be 74 nM; in assay [2] it was 373 nM.

For the molecule `C[C@@H]1CN(c2ccc(Nc3ncc4cc5n(c4n3)C3(CCCCC3)CNC5=O)nc2)C[C@H](C)N1C[C@@H](C)O` [MM], the results for the EC50 in assay [1] and in assay [2] were 84 nM and 681 nM, respectively.

With `CCN(CC)C1CCN(C2CCN(c3ccc(Nc4ncc5cc6n(c5n4)C4(CCCCC4)CNC6=O)nc3)CC2)C1` (centres unmarked) [RR], the values for the EC50 in assay [1] and in assay [2] were 102 nM and 158 nM, respectively.

With `CN(C)C1CCN(c2ccc(Nc3ncc4cc5n(c4n3)C3(CCCCC3)CNC5=O)nc2)CC1` [O], the figures for the EC50 in assay [1] and in assay [2] were 44 nM and 123 nM, respectively.

Regarding `CC(C)N1CCN(c2ccc(Nc3ncc4cc5n(c4n3)C3(CCCC3)CNC5=O)nc2)CC1C` (centres unmarked) [GGG], the figures for the EC50 in assay [1] and in assay [2] were 161 nM and 586 nM, respectively.
